Where “and” joins values, the source holds several entries; their conditions need not be identical. Identical values can stand only once. Like-named read-outs stand apart in the source and are kept apart here.
How the values were obtained:
[1] = biological target: T1, recombinant P. vivax NMT (PvNMT) (Plasmodium vivax, UniProt A5K1A2); parameters: method as in PMID 22439843; conditions: recombinant enzyme; read-out: Ki app PvNMT; cited from earlier work
T1 sequence (A5K1A2 1-410): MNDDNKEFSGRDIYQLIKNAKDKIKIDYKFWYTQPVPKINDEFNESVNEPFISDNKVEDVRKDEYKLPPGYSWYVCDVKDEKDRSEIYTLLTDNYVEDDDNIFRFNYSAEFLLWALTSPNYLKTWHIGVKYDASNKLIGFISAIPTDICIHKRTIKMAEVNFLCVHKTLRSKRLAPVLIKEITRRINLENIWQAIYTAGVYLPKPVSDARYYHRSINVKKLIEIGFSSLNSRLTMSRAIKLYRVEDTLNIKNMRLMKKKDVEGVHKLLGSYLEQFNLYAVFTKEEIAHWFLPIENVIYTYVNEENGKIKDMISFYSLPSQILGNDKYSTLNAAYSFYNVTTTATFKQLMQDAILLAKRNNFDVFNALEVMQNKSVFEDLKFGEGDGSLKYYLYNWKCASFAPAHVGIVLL

[2] = stability in phosphate buffered solutions used for enzymatic assay; format: physicochemical
Source text: It is well known that 2-cyanoethylthioethers can be cleaved in the presence of weak bases such as ammonia through a retro-Michael reaction.[27]

[3] = biological target: T1, recombinant P. vivax NMT (PvNMT); experiment: biochemical; format: biochemical; conditions: for LipE: lipophilic efficiency, LipE = –log(Ki) – clog P, based on PvNMT data; for Ki: recombinant enzyme, mean ± SD from duplicates, Ki app from IC50 by Cheng-Prusoff
Method: (§1) The only residue in the inhibitor-binding pocket that differs between these NMTs is Tyr334 (Pv numbering), which is replaced by a phenylalanine in PfNMT.
(§2) Final compounds were tested using a previously described fluorogenic 96-well plate assay for PvNMT,2 PfNMT3 and […]
(§3) nonlinear regression fitting using GraFit 7.0 (Erithacus Software Ltd., U.K.). Apparent inhibition constants, Kiapp, were calculated from experimental IC50 using Cheng-Prussof equation.5

[4] = biological target: T2, recombinant H. sapiens NMT isoform 1 (HsNMT1) (Homo sapiens, UniProt P30419); experiment: fluorogenic 96-well plate enzymatic assay for HsNMT1 activity; format: biochemical; conditions: for Ki: recombinant enzyme, mean ± SD from duplicates, Ki app from IC50 by Cheng-Prusoff
T2 sequence (P30419 1-496): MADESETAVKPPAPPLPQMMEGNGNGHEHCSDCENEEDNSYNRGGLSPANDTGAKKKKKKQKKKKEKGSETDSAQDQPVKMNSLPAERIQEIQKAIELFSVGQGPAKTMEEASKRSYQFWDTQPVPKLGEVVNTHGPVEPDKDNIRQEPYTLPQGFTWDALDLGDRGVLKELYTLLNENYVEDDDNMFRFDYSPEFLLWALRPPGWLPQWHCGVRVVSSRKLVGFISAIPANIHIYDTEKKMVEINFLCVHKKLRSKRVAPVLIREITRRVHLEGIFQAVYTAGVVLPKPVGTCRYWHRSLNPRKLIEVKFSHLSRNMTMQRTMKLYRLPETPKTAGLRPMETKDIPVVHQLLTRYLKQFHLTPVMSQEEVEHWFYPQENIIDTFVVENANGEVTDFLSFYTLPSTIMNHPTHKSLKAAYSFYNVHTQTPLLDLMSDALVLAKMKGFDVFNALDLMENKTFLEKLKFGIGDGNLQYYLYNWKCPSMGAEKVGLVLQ
Method: as §2, §3

[5] = biological target: T3, recombinant P. falciparum NMT (PfNMT) (Plasmodium falciparum, UniProt Q9U419); experiment: fluorogenic 96-well plate enzymatic assay for PfNMT activity; format: biochemical; conditions: for totally inactive on PfNMT up to: highest concentration without activity; for Ki: recombinant enzyme, mean ± SD from duplicates, Ki app from IC50 by Cheng-Prusoff
T3 sequence (Q9U419 1-410): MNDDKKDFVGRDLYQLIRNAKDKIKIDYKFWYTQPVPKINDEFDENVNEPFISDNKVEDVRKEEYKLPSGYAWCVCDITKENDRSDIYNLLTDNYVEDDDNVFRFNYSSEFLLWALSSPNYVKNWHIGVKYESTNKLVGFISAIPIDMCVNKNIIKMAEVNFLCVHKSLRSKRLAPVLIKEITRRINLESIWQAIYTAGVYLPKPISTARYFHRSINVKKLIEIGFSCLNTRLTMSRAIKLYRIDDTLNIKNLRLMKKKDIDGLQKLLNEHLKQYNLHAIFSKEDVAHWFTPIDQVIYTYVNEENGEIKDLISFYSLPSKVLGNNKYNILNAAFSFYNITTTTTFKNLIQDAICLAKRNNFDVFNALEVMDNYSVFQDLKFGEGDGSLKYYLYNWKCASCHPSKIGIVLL
Method: as §1, §2, §3

[6] = biological target: T4, recombinant H. sapiens NMT isoform 2 (HsNMT2) (Homo sapiens, UniProt O60551); experiment: fluorogenic 96-well plate enzymatic assay for HsNMT2 activity; format: biochemical; conditions: for Ki: recombinant enzyme, mean ± SD from duplicates, Ki app from IC50 by Cheng-Prusoff
T4 sequence (O60551 1-498): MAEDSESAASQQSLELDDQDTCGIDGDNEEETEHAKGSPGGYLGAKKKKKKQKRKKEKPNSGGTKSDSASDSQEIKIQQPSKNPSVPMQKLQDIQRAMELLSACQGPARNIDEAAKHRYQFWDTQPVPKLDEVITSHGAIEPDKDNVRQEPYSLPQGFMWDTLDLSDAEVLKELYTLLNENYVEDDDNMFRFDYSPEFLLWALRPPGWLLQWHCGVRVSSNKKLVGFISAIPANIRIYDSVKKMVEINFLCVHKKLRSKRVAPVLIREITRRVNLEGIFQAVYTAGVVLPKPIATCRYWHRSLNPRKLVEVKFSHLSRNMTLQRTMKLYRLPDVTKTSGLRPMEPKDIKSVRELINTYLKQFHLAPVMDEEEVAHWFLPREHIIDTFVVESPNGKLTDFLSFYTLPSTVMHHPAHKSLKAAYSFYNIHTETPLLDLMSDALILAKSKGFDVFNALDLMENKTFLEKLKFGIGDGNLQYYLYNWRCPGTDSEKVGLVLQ
Method: as §2, §3

[7] = solubility in assay buffer; conditions: could not be evaluated

LipE [3]	Ki ([3]; read-out: Ki app PvNMT)	Ki [4]	Ki ([5]; read-out: Ki app PfNMT)	Ki [6]	SMILES	further results
					CCOC(=O)c1cnc2ccc(OC)cc2c1SCCC#N [Compound 1, ethyl 4-((2-cyanoethyl)thio)-6-methoxyquinoline-3-carboxylate]	Ki [1]: 4700 nM and 4740 nM; stability in phosphate buffered solutions [2]: fully stable
1.90	550 ± 60 nM	> 10000 nM	> 10000 nM		CCOC(=O)c1cnc2ccc(OCc3ccccc3)cc2c1SCCC#N [Compound 4]	fold improvement in activity compared to the original methoxy compound ([3]; 6-benzyloxy vs 6-methoxy compound 1): 8 fold; totally inactive on PfNMT up to [5]: > 100 µM
0.22	2080 ± 140 nM	3360 ± 370 nM	1100 ± 80 nM	> 10000 nM	CCCSc1c(C(=O)OCC)cnc2ccc(OCc3ccccc3)cc12 [Compound 5]	fold improvement in activity versus PfNMT ([5]; n-propyl thioether vs 2-cyanoethyl thioether): > 10 fold
1.42	440 ± 50 nM	1560 ± 220 nM	670 ± 40 nM	4230 ± 530 nM	CCOC(=O)c1cnc2ccc(OCc3ccccc3)cc2c1SCC [Compound 7]	
0.69	4140 ± 410 nM		5900 ± 600 nM		CCOC(=O)c1cnc2ccc(OCc3ccccc3)cc2c1SC [Compound 8]	
2.46	1750 ± 120 nM	3600 ± 300 nM	5650 ± 1240 nM	> 10000 nM	CCOC(=O)c1cnc2ccc(OCc3ccccc3)cc2c1[S+]([O-])CC (stereo not drawn) [Compound 9]	
2.34	1780 ± 470 nM	> 10000 nM	> 10000 nM	> 10000 nM	CCOC(=O)c1cnc2ccc(OCc3ccccc3)cc2c1S(=O)(=O)CC [Compound 10]	
1.57	4190 ± 550 nM	> 10000 nM	> 10000 nM	> 10000 nM	CCSc1c(CO)cnc2ccc(OCc3ccccc3)cc12 [Compound 11]	
0.72	2920 ± 150 nM	> 10000 nM	2690 ± 510 nM	> 10000 nM	CCOCc1cnc2ccc(OCc3ccccc3)cc2c1SCC [Compound 12]	
2.46	340 ± 50 nM	1050 ± 115 nM	960 ± 110 nM	> 10000 nM	CCNC(=O)c1cnc2ccc(OCc3ccccc3)cc2c1SCC [Compound 13]	selectivity versus HsNMT1 ([4]; relative to PvNMT): 3 fold; selectivity versus HsNMT2 ([6]; relative to PvNMT): 30 fold
1.80	410 ± 60 nM	1020 ± 130 nM	940 ± 90 nM	3530 ± 400 nM	CCSc1c(C(=O)N(CC)CC)cnc2ccc(OCc3ccccc3)cc12 [Compound 14]	
					CCSc1c(C(=O)Nc2ccccc2)cnc2ccc(OCc3ccccc3)cc12 [Compound 16]	solubility [7]: poorly soluble
					CCSc1c(C(=O)Nc2nccs2)cnc2ccc(OCc3ccccc3)cc12 [Compound 17]	solubility [7]: poorly soluble
2.36	2840 ± 380 nM	> 10000 nM	8000 ± 3980 nM	> 10000 nM	CCSc1c(C(=O)NCCO)cnc2ccc(OCc3ccccc3)cc12 [Compound 18]	
3.57	280 ± 20 nM	50 ± 10 nM	1250 ± 80 nM	410 ± 70 nM	CCOC(=O)c1cnc2ccc(OCc3ccc(NCCN)nc3)cc2c1SCC [Compound 24]	
					CCCCc1c(C)nc2ccc(OC)cc2c1SCCC#N [MRT00057965, 3-butyl-4-((2-cyanoethyl)thio)-6-methoxy-2-methylquinoline]	totally inactive on PfNMT up to [5]: > 100 µM

SMILES	LipE [3]	Ki ([3]; read-out: Ki app PvNMT)	Ki [4]	Ki ([5]; read-out: Ki app PfNMT)	Ki [6]	further results
CCOC(=O)c1cnc2ccc(OCc3ccccc3)cc2c1SC(C)C [Compound 6]			4840 ± 640 nM		> 10000 nM	Ki ([5]; Ki app PfNMT): 1990 ± 300 nM
CCSc1c(C(=O)N2CCCC2)cnc2ccc(OCc3ccccc3)cc12 [Compound 15]	1.74	960 ± 130 nM	1360 ± 210 nM	1520 ± 290 nM	> 10000 nM	
CCSc1c(C(=O)N2CCOCC2)cnc2ccc(OCc3ccccc3)cc12 [Compound 19]					590 ± 50 nM	Ki ([3]; Ki app PvNMT): 200 ± 20 nM; Ki ([5]; Ki app PfNMT): 330 ± 20 nM

From paper PMC5463734, “Structure-guided optimization of quinoline inhibitors of Plasmodium N-myristoyltransferase” (MedChemComm, 2016)
